Measured values: patent US5612341A, “Brominated hexahydroxybiphenyl derivatives” (Biotech Research Laboratories, priority 1995, dated 1997)
Values after ≈ are worked out from the molar mass of the structure shown. Counter-ions that a name gives are not always drawn. Like-named read-outs stand apart in the source and are kept apart here.

How the values were obtained:
Assay type in all cases: cell-based
[1] = system: H9 T cell line; assay: Toxicity to uninfected H9 cells (cell count)
Experimental: (§1) The H9 T cell line was maintained in continuous culture with complete medium (RPMI and 10% fetal calf serum) at 5% CO2 and 37° C. and was used in experiments only when in log phase of growth. The cells were incubated with HIV-1 (IIIB isolate, TCID50 10^4 IU/mL, at a multiplicity of infection of 0.1-0.01 IU/cell) for 1 hour at 37° C. and 5% CO2. The cells then were washed thoroughly to remove unabsorbed virions and resuspended at 4×10^5 cells/mL in complete medium. Aliquots (1 mL) were placed in wells of 24-well culture plates containing an equal volume of test compound (diluted in the culture medium). After a four day incubation at 37° C., cell density of uninfected cultures was determined by counting cells in a Coulter counter to assess toxicity of the test compound. A p24 antigen ELISA assay was used to determine the level of virus released in the medium of the HIV-infected cultures. The p24 antigen assay uses an HIV-1 anti-p24 specific monoclonal antibody as the capture antibody coated on 96 well plates. Following a sample incubation period, rabbit serum containing antibodies for HIV-1 p24 is used to tag any p24 "captured" onto the microtiter well surface. […] The cut-off for the p24 ELISA assay is 12.5 pg/mL. P24 in the culture medium was quantitated against a standard curve containing known amounts of p24. The effective (EC50) and inhibitory concentrations (for anti-HIV activity and cytotoxicity, respectively) were determined.

[2] = system: HIV-1 (IIIB isolate); assay: microbe, parasite or virus in culture; details: for EC50: acutely infected H9 lymphocytes; for Therapeutic Index: 5760 min; for anti-HIV activity: result in words
Experimental: as §1

[3] = system: chronically HIV-1 infected promonocytic cell line, U1; assay: Virus expression in chronically HIV-1 infected promonocytic U1 cells (p24 ELISA)
Experimental: Therefore, compounds 4 and 5 were separately added for 72 hours to the chronically HIV-1 infected T cell line, ACH-2, and to the chronically HIV-1 infected promonocytic cell line, U1.
HIV-1 chronically infected T cell line, ACH-2, ^15 and HIV-1 chronically infected promonocytic cell line, U1 ^16 were continuously maintained in RPMI1640 with 10% fetal calf serum (FCS). For experiments, the cell lines were only used in log-phase of growth. Cells (1×10^6 cells/well) and either various concentrations of 4,5, AZT or media alone were added to 24-well plates in the presence or absence of PMA (10^-8 M). After 72 hours at 37° C. and 5% CO2, an aliquot of the cell-free supernatants was collected and analyzed for p24 antigen by ELISA.

[4] = Homo sapiens, H9, Table I, cytotoxicity, uninfected H9 cells, read-out: IC50
[5] = Human immunodeficiency virus 1, IIIB, Lymphocyte, Table I, read-out: EC50
[6] = T-cell, Table IA, concentration that causes a 50% reduction in total cell number, read-out: IC50
[7] = Table I, cytotoxicity, uninfected H9 cells
[8] = Human immunodeficiency virus 1, IIIB, Lymphocyte, Table IA, read-out: EC50

| EC50 [2, 5] [µg/mL] | SMILES | IC50 [1, 4] [µg/mL] | Therapeutic Index ([2]; Table I, IC50/EC50) | anti-HIV activity [2] | IC50 [1, 6] [µg/mL] | other results |
| --- | --- | --- | --- | --- | --- | --- |
|  | COc1c2c(c3c(c1Br)c(=O)oc(=O)c1c(Br)c(OC)c4c(c13)OCO4)OCO2 [Compound 8, 3,3'-Dibromo-4,4'-dimethoxy-5,6,5'6'-bimethylenedioxy biphenyl 2,2'-dicarboxylic anhydride] | > 100 |  |  |  |  |
|  | COc1c(Br)c(C(=O)O)c(-c2c3c(c(OC)c(Br)c2C(=O)O)OCO3)c2c1OCO2 [Compound 14, 3,3'-Dibromo-4,4'-dimethoxy-5,6,5',6'-bimethylenedioxy-2,2'-dicarboxy biphenyl di-1-(2-hydroxyethyl)pyrrolidinium salts] |  |  |  |  | EC50 ([2]; Table I): 17 µg/mL |
| > 100 | COc1c(OCc2ccccc2)c(OCc2ccccc2)c(Br)c(CO)c1-c1c(CO)c(Br)c(OCc2ccccc2)c(OCc2ccccc2)c1OC [Compound 19, 2,2'-Dihydroxymethyl-3,3'-dibromo-4,4'5,5'-tetrakis(benzyloxy)-6,6'-dimethoxy diphenyl] | > 100 | 1 | no anti-HIV activity |  |  |
| > 100 | COC(=O)c1c(Br)c(OCc2ccccc2)c(OCc2ccccc2)c(OC)c1-c1c(OC)c(OCc2ccccc2)c(OCc2ccccc2)c(Br)c1C(=O)OC [Compound 17, 2,2'-Dimethoxycarbonyl-3,3'-dibromo-4,4'5,5'-tetrakis(benzyloxy)-6,6'-dimethoxy biphenyl] | > 100 | 1 | no anti-HIV activity |  |  |
| > 100 | COc1c(Br)c(C(=O)O)c(-c2c3c(c(OC)c(Br)c2C(=O)OCC[N+](C)(C)C)OCO3)c2c1OCO2 [Compound 11, 3,3'-Dibromo-4,4'-dimethoxy-5,6,5'6'-bimethylenedioxy-2-carboxy-2'-(β-N,N,N-trimethylamino)ethoxycarbonyl biphenyl chloride] | > 100 | 1 | decrease in the anti-HIV activity |  |  |
|  | COC(=O)c1cc(-c2cc(C(=O)OC)c3c(c2OC)OCO3)c(OC)c2c1OCO2 [Compound 117, 2,2'-Dimethoxy-3,4,3'4'-bismethylenedioxy-5,5'-dimethoxycarbonyl biphenyl] |  |  |  | 1.8 (≈ 4.3 µM) | EC50 ([2]; Table IA): no inhibition |
|  | Cc1cn([C@H]2C[C@H](N=[N+]=[N-])[C@@H](CO)O2)c(=O)[nH]c1=O [AZT, azidothymidine, reference compound] |  |  |  |  | p24 ([3]; +Media, 0.1 μg/mL): 18 pg/mL; p24 ([3]; +Media, 1 μg/mL): 12 pg/mL; p24 ([3]; +Media, 10 μg/mL): 13 pg/mL; p24 ([3]; +Media, 100 μg/mL): 22 pg/mL; p24 ([3]; +PMA, 0.1 μg/mL): 8,070 pg/mL; p24 ([3]; +PMA, 1 μg/mL): 8,218 pg/mL; p24 ([3]; +PMA, 10 μg/mL): 9,299 pg/mL; p24 ([3]; +PMA, 100 μg/mL): 9,338 pg/mL |
|  | COC(=O)c1c2c(c(OC)c(Br)c1-c1c(Br)c(OC)c3c(c1C(=O)OC)OCO3)OCO2 [Compound 110, 6,6'-Dibromo-5,5'-dimethoxy-3,4,3'4'-bimethylenedioxy-2,2'-dimethoxycarbonyl biphenyl] |  |  |  | 45 (≈ 78.1 µM) | EC50 ([2]; Table IA): no inhibition |
|  | COc1c(Br)c(C(=O)O)c(-c2c3c(c(OC)c(Br)c2C(=O)O)OCO3)c2c1OCO2 [Compound 6, 3,3'-Dibromo-4,4'-dimethoxy-5,6,5'6'-bimethylenedioxy-2,2'-dicarboxy biphenyl] |  | 1 | decrease in the anti-HIV activity |  | EC50 ([2]; Table I): > 100 µg/mL; IC50 [1, 7]: > 100 µg/mL |
| > 100 | COC(=O)c1cc(OCc2ccccc2)c(OCc2ccccc2)c(OC)c1-c1c(OC)c(OCc2ccccc2)c(OCc2ccccc2)c(Br)c1C(=O)OC [Compound 16, 2,2'-Dimethoxycarbonyl-3-bromo-4,4',5,5'-tetrakis(benxyloxy)-6,6'-dimethoxybiphenyl] | > 100 | 1 | no anti-HIV activity |  |  |
|  | COC(=O)c1cc2c(c(OC)c1-c1c(C(=O)OC)cc3c(c1OC)OCO3)OCO2 [Compound 114, 6,6'-dimethoxy-4,5,4'5'-bimethylenedioxy-2,2'-dimethoxycarbonyl biphenyl] |  |  |  | > 100 | EC50 [2, 8]: 65 µg/mL (≈ 155 µM); Therapeutic Index ([2]; Table IA, ratio IC50/EC50): > 1.2 |
|  | COC(=O)c1c(Br)c2c(c(OC)c1-c1c3c(c(OC)c(Br)c1C(=O)OC)OCO3)OCO2 [Compound 119, 3,3'-Dibromo-4,6'-dimethoxy-5,6,4'5'-bimethylenedioxy-2,2'-dimethoxycarbonyl biphenyl] |  |  |  | > 100 | EC50 [2, 8]: 2.1 µg/mL (≈ 3.64 µM); Therapeutic Index ([2]; Table IA, ratio IC50/EC50): > 48 |
|  | COC(=O)c1c(-c2cc(OC)c3c(c2C(=O)OC)OCO3)cc(OC)c2c1OCO2 [Compound 116, 5,5'-Dimethoxy-3,4,3 '4'-bismethylenedioxy-2,2'-dimethoxycarbonyl biphenyl] |  |  |  | > 100 | EC50 [2, 8]: 70 µg/mL (≈ 167 µM); Therapeutic Index ([2]; Table IA, ratio IC50/EC50): > 1.4 |
|  | COC(=O)c1c(Br)c2c(c(OC)c1-c1c(OC)c3c(c(Br)c1C(=O)OC)OCO3)OCO2 [Compound 118, 3,3'-Dibromo-6,6'-dimethoxy-4,5,4,5'-bimethylenedioxy-2,2'-dimethoxycarbonyl biphenyl] |  |  |  | > 100 | EC50 [2, 8]: 90 µg/mL (≈ 156 µM); Therapeutic Index ([2]; Table IA, ratio IC50/EC50): > 1.1 |
| 30 (≈ 45.5 µM) | COc1c(Br)c(C(=O)O)c(-c2c3c(c(OC)c(Br)c2C(=O)NCCN2CCNCC2)OCO3)c2c1OCO2 [Compound 12, 3,3'-Dibromo-4,4'-dimethoxy-5,6,5'6'-bimethylenedioxy-2-carboxy-2'-(β-N-piperazine)ethylcarbonyl biphenyl] | > 100 | > 3.3 | decrease in the anti-HIV activity |  |  |
|  | COc1c(Br)c(C(=O)O)c(-c2c3c(c(OC)c(Br)c2C(=O)O)OCO3)c2c1OCO2 [Compound 7, 3,3'-Dibromo-4,4'-dimethoxy-5,6,5'6'-bimethylenedioxy-2,2'-dicarboxy biphenyl disodium salt] |  |  | decrease in the anti-HIV activity |  | Therapeutic Index ([2]; Table I, IC50/EC50, disodium salt): 1; EC50 ([2]; Table I, disodium salt): > 100 µg/mL; IC50 ([1]; Table I, cytotoxicity, uninfected H9 cells, disodium salt): > 100 µg/mL |
| 60 (≈ 104 µM) | CCOC(=O)c1c(Br)c(OC)c2c(c1-c1c3c(c(OC)c(Br)c1C(=O)O)OCO3)OCO2 [Compound 9, 3,3'-Dibromo-4,4'-dimethoxy-5,6,5'6'-bimethylenedioxy-2-ethoxycarbonyl-2'-carboxy biphenyl] | > 100 | > 1.7 | decrease in the anti-HIV activity |  |  |
|  | CCOC(=O)c1c(Br)c(OC)c2c(c1-c1c3c(c(OC)c(Br)c1C(=O)O)OCO3)OCO2 [Compound 10, 3,3'-Dibromo-4,4'-dimethoxy-5,6,5'6'-bimethylenedioxy-2-ethoxycarbonyl-2'-carboxy biphenyl monosodium salt] |  |  |  |  | IC50 [1, 7]: > 100 µg/mL |
| 100 (≈ 129 µM) | COc1c(OCc2ccccc2)c(OCc2ccccc2)cc(CO)c1-c1c(CO)c(Br)c(OCc2ccccc2)c(OCc2ccccc2)c1OC [Compound 18, 2,2'-Dihydroxymethyl-3-bromo-4,4'5,5'-tetrakis(benzyloxy)-6,6'-dimethoxy biphenyl] | > 100 | > 1 | no anti-HIV activity |  |  |
| > 100 | COc1c(Br)c(C(=O)O)c(-c2c3c(c(OC)c(Br)c2C(=O)NCCN2CCCC2)OCO3)c2c1OCO2 [Compound 13, 3,3'-Dibromo-4,4'-dimethoxy-5,6,5'6'-bimethylenedioxy-2-carboxy-2'-(β-N-pyrrolidinyl)ethylcarbonyl biphenyl hydrobromide] | > 100 | 1 | decrease in the anti-HIV activity |  |  |
|  | COC(=O)c1cc2c(c(OC)c1-c1c(C(=O)OC)cc(OC)c3c1OCO3)OCO2 [Compound 115, 4,6'-dimethoxy-5,6,4'5'-binethylenedioxy,2,2'-dimethoxycarbonyl biphenyl] |  |  |  | > 100 | EC50 [2, 8]: 7.5 µg/mL (≈ 17.9 µM); Therapeutic Index ([2]; Table IA, ratio IC50/EC50): > 13 |
| 2 (≈ 2.79 µM) | CCCCCCOC(=O)c1c(Br)c(OC)c2c(c1-c1c3c(c(OC)c(Br)c1C(=O)OCCCCCC)OCO3)OCO2 [Compound 15, 3,3'-Dibromo-4,4'-dimethoxy-5,6,5'6'-bimethylenedioxy-2,2'-dihexanoxycarbonyl biphenyl] | > 100 | > 50 |  |  |  |
